Data published in patent publication US11173124B2, “Oral delivery of GLP-1 peptide analogs” (MEDIMMUNE LIMITED, priority 2017, dated 2021).
Where “and” joins values, the source holds several entries; their conditions need not be identical. Identical values can stand only once. Values belong to the molecule of their own block, whether it stands above or below them. Starred links: 1 amine or outer side, 2 acyl side, 3 side chain; linkers in the order of their positions; H or OH if unused. Non-standard residues stand in square brackets, D forms with d. Residues, ends and D or L forms follow the SMILES beside them. Groups on a side chain read outwards from the residue. *: point of attachment. γGlu = O=C(O)[C@H](CCC(=O)[*:2])N[*:1]; αMeF = C[C@](N)(Cc1ccccc1)C(=O)O; αMeK = C[C@](N)(CCCCN)C(=O)O; Lauroyl = CCCCCCCCCCCC(=O)*; αMeS = C[C@](N)(CO)C(=O)O; AEEA = NCCOCCOCC(=O)O; Aib = CC(C)(N)C(=O)O

Assays:
[1] = Rat intraduodenal study, MEDI7219 with new gallate derivatives and other enhancers (Example 8); format: in vivo
Description: The next rat ID administration study was performed to assess the oral bioavailability and pharmacokinetics of MEDI7219 (SEQ ID NO:2) formulations containing new gallate derivatives, sodium 2-(3,4,5-trihydroxybenzoyloxy) acetate and butanoate, sodium cholate with propyl gallate, sodium caprate with propyl gallate, sodium caprate with propyl gallate and citric acid, and sucrose monododecanoate.

[2] = Canine study, MEDI7219 enterically coated tablets, enhancer ratios, amounts and peptide doses (Example 15); format: in vivo
Description: The next canine study (Table 22) was executed to confirm the performance of the formulation from the previous study (Example 14, Group 2 formulation, Table 21) at 1, 3 and 10 mg MEDI7219 (SEQ ID NO:2) peptide doses. The second goal was to explore the influence of formulation compositions designed around the Group 2 formulation with varying ratios and amounts of permeation enhancers in an enterically-coated tablet form on bioavailability and pharmacokinetic variability. The following formulation variables were tested: sodium chenodeoxycholate:propyl gallate ratios of 1:1, 1:2, and 1:3; 150, 300 and 450 mg of permeation enhancers at a 1:2 ratio; and 1, 3 and 10 mg peptide doses. All tablets were enterically coated with Eudragit formula dissolving at pH 5.5 and above.

[3] = Canine study, MEDI7219 enterically coated tablet, single and repeated dosing (Example 14); format: in vivo
Description: Tablet optimization was further established in the following canine study. The goals of this study were to evaluate the performance of the group 8 tablet formulation (Example 13, Table 20) as an enterically-coated (EC) tablet and to evaluate repeated dosing of this formulation. A Eudragit formula dissolving at pH 5.5 or above was applied to the tablets as enteric coating. Enterically-coated tablets were administered on day 0 followed by a 1 week wash-out. Following wash-out, animals received additional doses on days 7, 8, 9, 10 and 11.

[4] = Canine site of absorption study, IntelliCap, SEQ ID NO:3 solution formulations (Example 10); format: in vivo, Beagle dogs; details: for bioavailability: Beagle, plasma; for bioavailability / AUC(0-t) / Cmax / Tmax: dog, pH 8, canine; for F: canine; for AUC(0-t) / Cmax / Tmax: in vivo
Text: The IntelliCap® system, an electronic oral drug delivery and monitoring device, was used to determine regional absorption for solution formulations. In the form of a capsule, the IntelliCap® incorporates a microprocessor, battery, pH sensor, temperature sensor, radio frequency (RF) wireless transceiver, fluid pump, and drug reservoir. The IntelliCap® system can determine the drug's position in the gastrointestinal (GI) tract by a pH monitoring sensor in the capsule, thereby eliminating the need for in vivo imaging. This system was employed to assess the site of absorption of GLP-1 peptide analogs in the GI tract following oral delivery to canines (Beagle dogs). Solution formulations without permeation enhancer excipients were used as intravenous (IV) and subcutaneous (SC) controls in the study. In brief, solution formulations were prepared and transferred to the IntelliCap® capsule which was dosed to canines, wherein the formulation was released at a specific site in the GI tract.

[5] = po, 0.74 mg/kg, PO IntelliCap capsule-proximal small bowel, 8 mg/mL peptide, 10 mg/mL Na CDC, 2 mg/mL Sodium Caprate, PBS pH 8.0
[6] = po, 0.74 mg/kg, PO IntelliCap proximal colon, 8 mg/mL peptide, 10 mg/mL Na CDC, 2 mg/mL Sodium Caprate, PBS pH 8.0
[7] = po, 0.74 mg/kg, PO gavage, 8 mg/mL peptide, 10 mg/mL Na CDC, 2 mg/mL Sodium Caprate, PBS pH 8.0
[8] = iv, 0.01 mg/kg, 0.1 mg/mL peptide in PBS pH 8.0
[9] = sc, 0.01 mg/kg, 0.1 mg/mL peptide in PBS pH 8.0

Bioavailability F (%) ([1]; ID, 1 mg/kg, Group 6: 12.5 mg/mL Sodium Cholate, 25 mg/mL PG (25 + 50 mg/kg)): no bioavailability | Bioavailability F (%) ([1]; ID, 1 mg/kg, Group 7: 12.5 mg/mL Sodium Caprate, 25 mg/mL PG (25 + 50 mg/kg)): ~0.6% | Bioavailability F (%) ([1]; ID, 1 mg/kg, Group 8: 12.5 mg/mL Sodium Caprate, 25 mg/mL PG, 10 mg/mL Citric Acid): 0 (NA) % | exposure ([1]; ID, addition of citric acid to sodium caprate and propyl gallate): below level of quantification | Bioavailability F (%) ([1]; IV, 0.01 mg/kg, Group 1 control in 50 mM Tris, 150 mM Mannitol, 0.02% Polysorbate 80, pH 8.5): 100% | F ([2]; Intravenous, 0.05 mg/kg): 100% | F ([2]; Oral tablet, Group 10: 1 mg peptide, 100 mg Na CDC, 200 mg PG): 1.11% | F ([2]; Oral tablet, Group 11: 1 mg peptide, 100 mg Na CDC, 200 mg PG): 4.78% | F ([2]; Oral, Group 2 Enterically Coated tablet: 3 mg peptide, 100 mg Na CDC, 200 mg PG): 15.5% | F ([2]; Oral, Group 3 Enterically Coated tablet: 10 mg peptide, 100 mg Na CDC, 200 mg PG): 7.5% | F ([2]; Oral, Group 4 Enterically Coated tablet: 3 mg peptide, 75 mg Na CDC, 225 mg PG): 7.52% | F ([2]; Oral, Group 5 Enterically Coated tablet: 3 mg peptide, 50 mg Na CDC, 100 mg PG): 11.1% | F ([2]; Oral, Group 6 Enterically Coated tablet: 10 mg peptide, 50 mg Na CDC, 100 mg PG): 13.5% | F ([2]; Oral, Group 7 Enterically Coated tablet: 3 mg peptide, 150 mg Na CDC, 300 mg PG): 7.53% | F ([2]; Oral, Group 8 Enterically Coated tablet: 3 mg peptide, 150 mg Na CDC, 150 mg PG): 6.62% | F ([2]; Oral, Group 9 Enterically Coated tablet: 1 mg peptide, 100 mg Na CDC, 200 mg PG): > 4% and 4.2% | F ([3]; Enterically Coated Oral tablet (Eudragit, pH 5.5): 1 mg peptide, 100 mg Na CDC, 200 mg PG): 4.6% | F ([3]; Intravenous, 0.05 mg/kg, 0.5 mg/mL in 50 mM Tris, 150 mM mannitol, 0.02% Polysorbate 80, pH8.0): 100%
SMILES: CCCCCCCCCCCC(=O)N[C@@H](CCC(=O)NCCOCCOCC(=O)NCCOCCOCC(=O)NCCCC[C@H](NC(=O)[C@H](C)NC(=O)[C@@H](NC(=O)[C@](C)(Cc1ccccc1)NC(=O)[C@H](CCC(=O)O)NC(=O)[C@](C)(CCCCN)NC(=O)[C@H](C)NC(=O)[C@H](C)NC(=O)[C@H](CCC(=O)O)NC(=O)CNC(=O)[C@H](CCC(=O)O)NC(=O)[C@H](CC(C)C)NC(=O)[C@H](CCCCNC(=O)COCCOCCNC(=O)COCCOCCNC(=O)CC[C@H](NC(=O)CCCCCCCCCCC)C(=O)O)NC(=O)[C@H](CO)NC(=O)[C@](C)(CO)NC(=O)[C@@H](NC(=O)[C@H](CC(=O)O)NC(=O)[C@H](CO)NC(=O)[C@@H](NC(=O)[C@](C)(Cc1ccccc1)NC(=O)[C@H](CO)NC(=O)CNC(=O)[C@H](CCC(=O)O)NC(=O)C(C)(C)NC(=O)[C@@H](N)Cc1c[nH]cn1)[C@@H](C)O)C(C)C)[C@@H](C)CC)C(=O)N[C@H](C(=O)N[C@H](C(=O)N[C@@H](CCC(=O)O)C(=O)NCC(=O)NCC(N)=O)C(C)C)C(C)C)C(=O)O [MEDI7219, Free-H-[AIB]-EGS-[αMePhe]-TSDV-[αMeSer]-SK[(PEG2)2-γE-Lauroyl]-LEGEAA-[αMeLys]-E-[αMePhe]-IAK[(PEG2)2-γE-Lauroyl]-VVEGG-amide] (H-H[Aib]EGS[αMeF]TSDV[αMeS]SK([AEEA-AEEA-γGlu-Lauroyl])LEGEAA[αMeK]E[αMeF]IAK([AEEA-AEEA-γGlu-Lauroyl])VVEGG-NH2)
bioavailability and PK variability on repeated dosing ([3]; enterically coated tablet 1 mg peptide, 100 mg Na CDC, 200 mg PG, day 0, then days 7, 8, 9, 10 and 11): consistent bioavailability with reduced PK variability in subsequent dosing days

bioavailability [4, 5]: 1.14% | bioavailability [4, 6]: 3.95% | bioavailability [4, 7]: 0.19% | F ([4]; IV, 0.01 mg/kg, 0.1 mg/mL peptide in PBS pH 8.0): 100% | F ([4]; SC, 0.01 mg/kg, 0.1 mg/mL peptide in PBS pH 8.0): 105.84% | AUC(0-t) [4, 8]: 1650 ng·h/mL | Cmax [4, 8]: 140 ng/mL | Tmax [4, 8]: 30 min | AUC(0-t) [4, 5]: 1390 ng·h/mL | Cmax [4, 5]: 60.7 ng/mL | Tmax [4, 5]: 30 min | AUC(0-t) [4, 6]: 4840 ng·h/mL | Cmax [4, 6]: 386 ng/mL | AUC(0-t) [4, 7]: 228 ng·h/mL | Cmax [4, 7]: 7.1 ng/mL | Tmax [4, 7]: 240 min | AUC(0-t) [4, 9]: 1750 ng·h/mL | Cmax [4, 9]: 45.1 ng/mL
SMILES: CC[C@H](C)[C@H](NC(=O)C(C)(Cc1ccccc1)NC(=O)[C@H](CCC(=O)O)NC(=O)[C@H](CCCCNC(=O)COCCOCCNC(=O)COCCOCCNC(=O)CC[C@H](NC(=O)CCCCCCCCCCCCCCCCC(=O)O)C(=O)O)NC(=O)[C@H](C)NC(=O)[C@H](C)NC(=O)[C@H](CCC(=O)O)NC(=O)CNC(=O)[C@H](CCC(=O)O)NC(=O)[C@H](CC(C)C)NC(=O)C(C)(Cc1ccccc1)NC(=O)[C@H](CO)NC(=O)C(C)(CO)NC(=O)[C@@H](NC(=O)[C@H](CC(=O)O)NC(=O)[C@H](CO)NC(=O)[C@@H](NC(=O)C(C)(Cc1ccccc1)NC(=O)[C@H](CO)NC(=O)CNC(=O)[C@H](CCC(=O)O)NC(=O)C(C)(C)NC(=O)[C@@H](N)Cc1c[nH]cn1)[C@@H](C)O)C(C)C)C(=O)N[C@@H](C)C(=O)NC(C)(Cc1ccccc1)C(=O)N[C@H](C(=O)N[C@H](C(=O)NC(C)(CCCCN)C(=O)NCC(=O)NCC(N)=O)C(C)C)C(C)C (stereo partly drawn) [SEQ ID NO: 3, Free-H-[AIB]-EGS-[αMePhe]-TSDV-[αMeSer]-S-[αMePhe]-LEGEAAK[(PEG2)2-γE-Stearate]-E-[αMePhe]-IA-[αMePhe]-VV-[αMeLys]-GG-amide]
